Measurements: patent US5120736A, “4-methyl-5-(2-(4-phenylpiperazin-1-yl)ethyl)thiazole derivatives their method of preparation and the pharmaceutical compositions in which they are present” (Institut de Recherches Chimiques et Biologiques Appliquees, priority 1988, dated 1992)
Read-outs that look alike come from different tables or passages of the source.

Legend:
[1] = molecular target: T1, post-synaptic alpha-adrenergic receptors (isolated rat vas deferens) (Rattus norvegicus, UniProt P43140); assay: alpha-blocking activity towards norepinephrine on isolated rat vas deferens; settings: norepinephrine contraction, read-out: pA2 (converted)
T1 construct: isolated rat vas deferens; from tissue; host or cells: isolated rat vas deferens
T1 sequence (P43140 1-466): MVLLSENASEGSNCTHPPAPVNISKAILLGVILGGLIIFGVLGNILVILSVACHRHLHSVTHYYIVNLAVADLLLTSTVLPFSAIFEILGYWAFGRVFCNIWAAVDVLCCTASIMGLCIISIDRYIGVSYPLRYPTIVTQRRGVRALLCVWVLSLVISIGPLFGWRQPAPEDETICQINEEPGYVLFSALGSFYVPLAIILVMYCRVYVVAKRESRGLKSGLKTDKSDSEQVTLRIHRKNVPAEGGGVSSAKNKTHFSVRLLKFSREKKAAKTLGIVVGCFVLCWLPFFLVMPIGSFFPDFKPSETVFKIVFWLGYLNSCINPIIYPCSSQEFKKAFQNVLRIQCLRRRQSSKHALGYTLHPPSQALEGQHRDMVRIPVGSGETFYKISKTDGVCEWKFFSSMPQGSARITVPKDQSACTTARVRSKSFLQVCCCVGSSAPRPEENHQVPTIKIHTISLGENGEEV
Procedure: 2) Determination of the alpha-blockinq activity on isolated rat vas deferens
(§1) a) Principle of the measurement
Stimulation of the post-synaptic alpha-adrenergic receptors by norepinephrine causes contraction of the isolated vas deferens.
The concentration of product in whose presence the norepinephrine concentration must be doubled to obtain the same effect as in the absence of said product is determined.
The logarithm of this concentration, with its sign changed, constitutes the pA2 of the products.

[2] = tested on: increase in ureteral pressure induced by norepinephrine; assay: inhibitory action on the increase in ureteral pressure induced in rabbits by intravenous norepinephrine; format: in vivo, anesthetized male rabbits; settings: for ED50: Oryctolagus cuniculus, iv, norepinephrine-induced ureteral hyperpressure, read-out: ID50 (50 percent inhibitory dose)
Procedure: 4) Determination of the inhibitory action of the compounds towards the increase in ureteral pressure induced in rabbits by the intravenous administration of norepinephrine
as §1
The ureteral pressure is measured by catheterization of the prostatic ureter of anesthetized male rabbits. The increase in ureteral pressure is induced by an intravenous injection of norepinephrine. This hyperpressure can be inhibited by the prior administration of molecules with alpha-blocking potential.
These are shown in Table 5 in the form of the 50% inhibitory dose (ID50), which is defined as being the dose of product which, when administered intravenously, causes a 50% inhibition of the ureteral hyperpressure induced by norepinephrine.

[3] = tested on: lethal effect of norepinephrine; assay: adrenolytic activity in vivo in rats towards the lethal effect of norepinephrine; settings: Rattus norvegicus
Procedure: 3) Determination of the adrenolytic activity "in vivo" in rats:
as §1
The intravenous injection of norepinephrine (0.4 mg.kg^-1) into wake rats causes the death of 100% of the animals. The prior administration of a substance with an alpha-blocking property enables this toxicity to be reduced.
The results are expressed in the form of the 50% effective dose (ED50), i.e. the dose in mg.kg^-1 which protects 50% of the animals.

[4] = Acute toxicity in mice, single oral administration; settings: mouse, in vivo, male mice, 14 days observation, read-out: LD50 (50 percent lethal dose)
Procedure: 1) Acute toxicity in mice:
Principle of the measurement
The products were administered orally, in a single dose, to male mice with an average weight of 22 g. The mortality was recorded after an observation period of 14 days.
The results are expressed in the form of the 50% lethal dose (LD50), i.e. the theoretical dose in mg.kg^-1, administered orally, which causes the death of 50% of the animals.

[5] = oral, norepinephrine 0.4 mg.kg^-1 i.v., read-out: ED50 (50 percent effective dose)

SMILES | Kb [1] | ED50 [2] | effectiveness against ureteral hyperpressure (in words) ([2]; i.v., in words) | ED50 [3, 5] | LD50 at 336 h [4] | ED50 ([3]; po, prior-art compound, under the same conditions, read-out: ED50)
Cc1ncsc1CCN1CCN(c2ccccc2OC(C)C)CC1.Cl [B 1398, 4-methyl-5-[2-(4-o-isopropoxyphenylpiperazin-1-yl)ethyl]thiazole monohydrochloride] | 17 nM | 0.09 mg/kg | remarkably effective | 0.44 mg/kg | > 1000 mg/kg | –
CCOc1ccccc1N1CCN(CCc2scnc2C)CC1.Cl.Cl.Cl [B 1211, 4-methyl-5-[2-(4-o-ethoxyphenylpiperazin-1-yl)ethyl]thiazole trihydrochloride] | 26.3 nM | 0.16 mg/kg | – | 2 mg/kg | > 1000 mg/kg | –
Cc1ncsc1CCN1CCN(c2ccccc2OCC(C)C)CC1 [B 1422] | 36.3 nM | – | – | 1.6 mg/kg | > 1000 mg/kg | –
Cc1ncsc1CCN1CCN(c2ccccc2)CC1 [4-methyl-5-[2-(4-phenylpiperazin-1-yl)ethyl]thiazole, reference compound] | – | – | – | – | – | 8.7 mg/kg
Cc1ncsc1CCN1CCN(c2ccccc2O)CC1.Cl.Cl [B 1302, 4-methyl-5-[2-(4-o-hydroxyphenylpiperazin-1-yl)ethyl]thiazole dihydrochloride] | 126 nM | 0.44 mg/kg | – | 4 mg/kg | 490 mg/kg | –
CCCCOc1ccccc1N1CCN(CCc2scnc2C)CC1.Cl [B 1341, 4-methyl-5-[2-(4-o-butoxyphenylpiperazin-1-yl)ethyl]thiazole monohydrochloride] | 10 nM | 0.39 mg/kg | – | 1 mg/kg | > 1000 mg/kg | –
COc1ccccc1N1CCN(CCc2scnc2C)CC1.Cl.Cl.Cl [B 1433, 4-methyl-5-[2-(4-o-methoxyphenylpiperazin-1-yl)ethyl]thiazole trihydrochloride] | 14.5 nM | 0.3 mg/kg | – | 2.66 mg/kg | > 1000 mg/kg | –
Cc1ncsc1CCN1CCN(c2ccccc2OCc2ccccc2)CC1 [B 1425] | 63.1 nM | – | – | 5 mg/kg | > 1000 mg/kg | –
Cc1ncsc1CCN1CCN(c2ccccc2OCCC(C)C)CC1 [B 1423] | 45.7 nM | – | – | 2.35 mg/kg | > 1000 mg/kg | –
Cc1ncsc1CCN1CCN(c2ccccc2OCC(C)(C)C)CC1 [B 1424] | 200 nM | – | – | 2.04 mg/kg | > 1000 mg/kg | –
CCCCCOc1ccccc1N1CCN(CCc2scnc2C)CC1.Cl [B 1357, 4-methyl-5-[2-(4-o-pentoxyphenylpiperazin-1-yl)ethyl]thiazole monohydrochloride] | 17 nM | 0.46 mg/kg | – | 1.8 mg/kg | > 1000 mg/kg | –
CCCOc1ccccc1N1CCN(CCc2scnc2C)CC1 [B 1359] | 57.5 nM | – | – | 1.93 mg/kg | > 1000 mg/kg | –
